{
  "source": "patent US4323581A",
  "about": "“Method of treating carcinogenesis” (priority 1978, dated 1982)",
  "key": {"tracheal epithelium [1]": {"test_system": "tracheal epithelium", "test": "Reversal of keratinized squamous metaplastic lesions of vitamin A deficiency in tracheal organ culture", "assay_type": "cell-based", "settings": "collected day 10; for % of Cultures with Respective Amounts of Squamous Metaplasia: Marked: marked = 10-40% squamous; for % of Cultures with Respective Amounts of Squamous Metaplasia: Mild: mild = 2-10% squamous; for % of Cultures with Respective Amounts of Squamous Metaplasia: Minimal: minimal = less than 2% squamous; for % of Cultures with Respective Amounts of Squamous Metaplasia: Severe: severe = more than 40% squamous", "source_text": "N-(4-hydroxyphenyl)-all-trans-retinamide was compared with retinoic acid in an in vitro screening model for identifying retinoids having activity in preventing carcinogenesis in epithelial tissue. The experimental method, which is described in Experimental Lung Cancer:Intern'l Symp, 575-82, 1974, involves reversal of keratinization in tracheal organ culture.\nIn brief summary, in the absence of retinoic acid or a synthetic retinoid having similar activity, the test organ culture of tracheal epithelium undergoes abnormal differentiation. Addition of small concentrations of retinoic acid (as low as 10^-9 M) will cause reversion to normal tracheal epithelium. Test compounds are compared in activity to retinoic acid or another active standard both as regards squamous metaplasia and keratin production, both of which are measures of abnormal development of the epithelial culture.\nIn carrying out the tests reported in Table I, all tracheas were cultured for the first 3 days in medium without retinoid. At this time, some tracheas were collected, while the rest were cultured for a further week in medium containing either no retinoid, or retinoid added at the concentrations shown. These tracheas were collected on the 10th day of culture. Cultures were graded as to the percentage of their total epithelium showing squamous metaplasia on eight cross sections from the middle of each trachea. If more than 40% of the total epithelial length was squamous, it was graded as having severe squamous metaplasia; between 10-40% was graded as marked; between 2-10% was graded as mild; and less than 2% was graded as minimal."}, "[2]": {"settings": "higher mammals; cited from earlier work"}, "tracheal epithelium [3]": {"test_system": "tracheal epithelium", "settings": "small concentrations, as low as; cited from earlier work"}, "[4]": {"test_system": "MNU-induced mammary cancer", "test": "Inhibition of mammary carcinogenesis induced by N-methyl-N-nitrosourea (MNU), rat breast cancer", "assay_type": "in vivo, Female Sprague-Dawley rats", "settings": "Table II, 73 days"}, "[5]": {"settings": "MNU high dose (50 mg/kg), 328 mg/kg diet"}, "[6]": {"settings": "MNU high dose (50 mg/kg), 656 mg/kg diet"}, "[7]": {"settings": "MNU low dose (15 mg/kg), 328 mg/kg diet"}, "[8]": {"settings": "MNU low dose (15 mg/kg), 656 mg/kg diet"}},
  "data": [
    {"smiles": "CC1=C(/C=C/C(C)=C/C=C/C(C)=C/C(=O)O)C(C)(C)CCC1", "note": "[Retinoic Acid, retinoic acid, reference compound]", "values": [
      {"measurement": "% of Cultures with Keratin and Keratohyaline Granules", "setting": "tracheal epithelium [1]; 10^-8 M", "result": 0, "unit": "%"},
      {"measurement": "% of Cultures with Respective Amounts of Squamous Metaplasia: None", "setting": "tracheal epithelium [1]; 10^-8 M", "result": 27, "unit": "%"},
      {"measurement": "% of Cultures with Respective Amounts of Squamous Metaplasia: Marked", "setting": "tracheal epithelium [1]; 10^-8 M", "result": 0, "unit": "%"},
      {"measurement": "% of Cultures with Respective Amounts of Squamous Metaplasia: Mild", "setting": "tracheal epithelium [1]; 10^-8 M", "result": 23, "unit": "%"},
      {"measurement": "% of Cultures with Respective Amounts of Squamous Metaplasia: Minimal", "setting": "tracheal epithelium [1]; 10^-8 M", "result": 49, "unit": "%"},
      {"measurement": "% of Cultures with Respective Amounts of Squamous Metaplasia: Severe", "setting": "tracheal epithelium [1]; 10^-8 M", "result": 0, "unit": "%"},
      {"measurement": "% of Cultures with Keratin and Keratohyaline Granules", "setting": "tracheal epithelium [1]; 10^-9 M", "result": 3, "unit": "%"},
      {"measurement": "% of Cultures with Respective Amounts of Squamous Metaplasia: None", "setting": "tracheal epithelium [1]; 10^-9 M", "result": 16, "unit": "%"},
      {"measurement": "% of Cultures with Respective Amounts of Squamous Metaplasia: Marked", "setting": "tracheal epithelium [1]; 10^-9 M", "result": 12, "unit": "%"},
      {"measurement": "% of Cultures with Respective Amounts of Squamous Metaplasia: Mild", "setting": "tracheal epithelium [1]; 10^-9 M", "result": 32, "unit": "%"},
      {"measurement": "% of Cultures with Respective Amounts of Squamous Metaplasia: Minimal", "setting": "tracheal epithelium [1]; 10^-9 M", "result": 37, "unit": "%"},
      {"measurement": "% of Cultures with Respective Amounts of Squamous Metaplasia: Severe", "setting": "tracheal epithelium [1]; 10^-9 M", "result": 2, "unit": "%"},
      {"measurement": "% of Cultures with Keratin and Keratohyaline Granules", "setting": "tracheal epithelium [1]; 10^-10 M", "result": 32, "unit": "%"},
      {"measurement": "% of Cultures with Respective Amounts of Squamous Metaplasia: None", "setting": "tracheal epithelium [1]; 10^-10 M", "result": 9, "unit": "%"},
      {"measurement": "% of Cultures with Respective Amounts of Squamous Metaplasia: Marked", "setting": "tracheal epithelium [1]; 10^-10 M", "result": 17, "unit": "%"},
      {"measurement": "% of Cultures with Respective Amounts of Squamous Metaplasia: Mild", "setting": "tracheal epithelium [1]; 10^-10 M", "result": 43, "unit": "%"},
      {"measurement": "% of Cultures with Respective Amounts of Squamous Metaplasia: Minimal", "setting": "tracheal epithelium [1]; 10^-10 M", "result": 4, "unit": "%"},
      {"measurement": "% of Cultures with Respective Amounts of Squamous Metaplasia: Severe", "setting": "tracheal epithelium [1]; 10^-10 M", "result": 28, "unit": "%"},
      {"measurement": "toxicity at high dosage levels", "setting": "[2]", "result": "too toxic at high dosage levels to be of practical value for cancer prevention in higher mammals"},
      {"measurement": "lowest concentration causing reversion to normal tracheal epithelium", "setting": "tracheal epithelium [3]", "result": "10^-9 M"}
    ]},
    {"smiles": "CC(=O)OC/C=C(C)/C=C/C=C(C)/C=C/C1=C(C)CCCC1(C)C", "note": "[Retinyl Acetate, retinyl acetate, reference compound]", "values": [
      {"measurement": "Mammary Tumor Incidence", "setting": "[4]; [5]", "result": "5/19"},
      {"measurement": "Mammary Tumor Incidence (%)", "setting": "[4]; [5]", "result": 26, "unit": "%"},
      {"measurement": "Mammary Tumor Incidence", "setting": "[4]; [6]", "result": "4/17"},
      {"measurement": "Mammary Tumor Incidence (%)", "setting": "[4]; [6]", "result": 24, "unit": "%"},
      {"measurement": "Mammary Tumor Incidence", "setting": "[4]; [7]", "result": "0/39"},
      {"measurement": "Mammary Tumor Incidence (%)", "setting": "[4]; [7]", "result": 0, "unit": "%"},
      {"measurement": "Mammary Tumor Incidence", "setting": "[4]; [8]", "result": "0/40"},
      {"measurement": "Mammary Tumor Incidence (%)", "setting": "[4]; [8]", "result": 0, "unit": "%"},
      {"measurement": "Mammary Tumor Incidence", "setting": "[4]; saline, 328 mg/kg diet", "result": "0/10"},
      {"measurement": "Mammary Tumor Incidence (%)", "setting": "[4]; saline, 328 mg/kg diet", "result": 0, "unit": "%"},
      {"measurement": "Mammary Tumor Incidence", "setting": "[4]; saline, 656 mg/kg diet", "result": "0/10"},
      {"measurement": "Mammary Tumor Incidence (%)", "setting": "[4]; saline, 656 mg/kg diet", "result": 0, "unit": "%"},
      {"measurement": "toxicity at high dosage levels", "setting": "[2]", "result": "too toxic at high dosage levels to be of practical value for cancer prevention in higher mammals"}
    ]},
    {"smiles": "CCCCCCCCCCCCCCCC(=O)OC/C=C(C)/C=C/C=C(C)/C=C/C1=C(C)CCCC1(C)C", "note": "[retinyl palmitate]", "values": [
      {"measurement": "toxicity at high dosage levels", "setting": "[2]", "result": "too toxic at high dosage levels to be of practical value for cancer prevention in higher mammals"}
    ]}
  ]
}
